Experimental data as given in PubChem BioAssay AID2060491 (Molecular Pharmacology Branch, DTP, NCI, 2025).

Tested on: 857933-349-R-J2-PDC complex spheroids, viability
Test: Anticancer human tumor 857933-349-R-J2-PDC patient-derived colon adenocarcinoma cell line growth inhibition [GQUAD]
Settings: for IC50: curve of first compound; for viability, T/C: stronger effect = lower value
How it was run: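 Viability of tumor cells grown as complex spheroids with endothelial and stromal cells, exposed to drug combinations. Top concentration at or near clinical Cmax (else 10 microM), diluted in half-log increments.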

[1] = second compound 0.0316 µM, first compound 0.0316 µM
[2] = second compound 0.0316 µM, first compound 0.1 µM
[3] = second compound 0.0316 µM, first compound 0.316 µM
[4] = second compound 0.0316 µM, first compound 1 µM
[5] = second compound 0.0316 µM, first compound 3.16 µM
[6] = second compound 0.0316 µM, first compound 10 µM
[7] = second compound 0.1 µM, first compound 0.0316 µM
[8] = second compound 0.1 µM, first compound 0.1 µM
[9] = second compound 0.1 µM, first compound 0.316 µM
[10] = second compound 0.1 µM, first compound 1 µM
[11] = second compound 0.1 µM, first compound 3.16 µM
[12] = second compound 0.1 µM, first compound 10 µM
[13] = second compound 0.316 µM, first compound 0.0316 µM
[14] = second compound 0.316 µM, first compound 0.1 µM
[15] = second compound 0.316 µM, first compound 0.316 µM
[16] = second compound 0.316 µM, first compound 1 µM
[17] = second compound 0.316 µM, first compound 3.16 µM
[18] = second compound 0.316 µM, first compound 10 µM
[19] = second compound 1 µM, first compound 0.0316 µM
[20] = second compound 1 µM, first compound 0.1 µM
[21] = second compound 1 µM, first compound 0.316 µM
[22] = second compound 1 µM, first compound 1 µM
[23] = second compound 1 µM, first compound 3.16 µM
[24] = second compound 1 µM, first compound 10 µM
[25] = second compound 3.16 µM, first compound 0.0316 µM
[26] = second compound 3.16 µM, first compound 0.1 µM
[27] = second compound 3.16 µM, first compound 0.316 µM
[28] = second compound 3.16 µM, first compound 1 µM
[29] = second compound 3.16 µM, first compound 3.16 µM
[30] = second compound 3.16 µM, first compound 10 µM
[31] = second compound 10 µM, first compound 0.0316 µM
[32] = second compound 10 µM, first compound 0.1 µM
[33] = second compound 10 µM, first compound 0.316 µM
[34] = second compound 10 µM, first compound 1 µM
[35] = second compound 10 µM, first compound 3.16 µM
[36] = second compound 10 µM, first compound 10 µM
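Further: spheroids exposed to compounds for one week before readout.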
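Wherever viability, T/C is given: percent viability relative to vehicle DMSO wells taken as 100%.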

**Q.** How did the IC50 (second compound 0.0316 µM) turn out when `COc1cccc2c1C(=O)c1c(O)c3c(c(O)c1C2=O)CC(O)(C(=O)CO)CC3OC1CC(N)C(O)C(C)O1` (stereo unspecified) + CN(C)c1ccc(Nc2c3ccc(NC(=O)CCN4CCCC4)cc3nc3cc(NC(=O)CCN4CCCC4)ccc23)cc1 was run?
**A.** 917 nM

**Q.** And the IC50 (second compound 0.1 µM)?
**A.** 828 nM

**Q.** What about the IC50 (second compound 0.316 µM) of the same compound?
**A.** 663 nM

**Q.** What about the IC50 (second compound 1 µM) of the same compound?
**A.** 711 nM

**Q.** And the IC50 (second compound 3.16 µM)?
**A.** 739 nM

**Q.** And the IC50 (second compound 10 µM)?
**A.** 978 nM

**Q.** And the viability, T/C [1]?
**A.** 100%

**Q.** What about the viability, T/C [2] of the same compound?
**A.** 97.1%

**Q.** What about the viability, T/C [3] of the same compound?
**A.** 76.7%

**Q.** And the viability, T/C [4]?
**A.** 52.2%

**Q.** What about the viability, T/C [5] of the same compound?
**A.** 8.8%

**Q.** And the viability, T/C [6]?
**A.** 0.64%

**Q.** What about the viability, T/C [7] of the same compound?
**A.** 99.2%

**Q.** What about the viability, T/C [8] of the same compound?
**A.** 92.8%

**Q.** And the viability, T/C [9]?
**A.** 79.3%

**Q.** What about the viability, T/C [10] of the same compound?
**A.** 45.4%

**Q.** What about the viability, T/C [11] of the same compound?
**A.** 9.85%

**Q.** And the viability, T/C [12]?
**A.** 0.72%

**Q.** And the viability, T/C [13]?
**A.** 102%

**Q.** What about the viability, T/C [14] of the same compound?
**A.** 95.8%

**Q.** And the viability, T/C [15]?
**A.** 72.7%

**Q.** And the viability, T/C [16]?
**A.** 37.3%

**Q.** What about the viability, T/C [17] of the same compound?
**A.** 10.8%

**Q.** And the viability, T/C [18]?
**A.** 0.64%

**Q.** And the viability, T/C [19]?
**A.** 103%

**Q.** What about the viability, T/C [20] of the same compound?
**A.** 86%

**Q.** What about the viability, T/C [21] of the same compound?
**A.** 76.2%

**Q.** And the viability, T/C [22]?
**A.** 39.6%

**Q.** What about the viability, T/C [23] of the same compound?
**A.** 12.5%

**Q.** And the viability, T/C [24]?
**A.** 0.68%

**Q.** And the viability, T/C [25]?
**A.** 91.6%

**Q.** What about the viability, T/C [26] of the same compound?
**A.** 76.8%

**Q.** And the viability, T/C [27]?
**A.** 73.7%

**Q.** What about the viability, T/C [28] of the same compound?
**A.** 42.6%

**Q.** What about the viability, T/C [29] of the same compound?
**A.** 11.9%

**Q.** What about the viability, T/C [30] of the same compound?
**A.** 0.97%

**Q.** What about the viability, T/C [31] of the same compound?
**A.** 70.7%

**Q.** And the viability, T/C [32]?
**A.** 73.4%

**Q.** What about the viability, T/C [33] of the same compound?
**A.** 67.1%

**Q.** What about the viability, T/C [34] of the same compound?
**A.** 50.1%

**Q.** And the viability, T/C [35]?
**A.** 9.58%

**Q.** What about the viability, T/C [36] of the same compound?
**A.** 1.5%

**Q.** How did the IC50 (second compound 0.0316 µM) turn out when `Cc1[nH]c2ccccc2c1CCNCc1ccc(/C=C/C(=O)NO)cc1` + CN(C)c1ccc(Nc2c3ccc(NC(=O)CCN4CCCC4)cc3nc3cc(NC(=O)CCN4CCCC4)ccc23)cc1 was run?
**A.** > 316 nM

**Q.** And the IC50 (second compound 0.1 µM)?
**A.** > 316 nM

**Q.** What about the IC50 (second compound 0.316 µM) of the same compound?
**A.** > 316 nM

**Q.** What about the IC50 (second compound 1 µM) of the same compound?
**A.** > 316 nM

**Q.** And the IC50 (second compound 3.16 µM)?
**A.** > 316 nM

**Q.** And the IC50 (second compound 10 µM)?
**A.** > 316 nM

**Q.** What about the viability, T/C (second compound 0.0316 µM, first compound 0.000999 µM) of the same compound?
**A.** 105%

**Q.** What about the viability, T/C (second compound 0.0316 µM, first compound 0.00316 µM) of the same compound?
**A.** 99.6%

**Q.** What about the viability, T/C (second compound 0.0316 µM, first compound 0.00999 µM) of the same compound?
**A.** 109%

**Q.** What about the viability, T/C [1] of the same compound?
**A.** 101%

**Q.** What about the viability, T/C (second compound 0.0316 µM, first compound 0.0999 µM) of the same compound?
**A.** 109%

**Q.** What about the viability, T/C [3] of the same compound?
**A.** 60.2%

**Q.** And the viability, T/C (second compound 0.1 µM, first compound 0.000999 µM)?
**A.** 105%

**Q.** What about the viability, T/C (second compound 0.1 µM, first compound 0.00316 µM) of the same compound?
**A.** 102%

**Q.** And the viability, T/C (second compound 0.1 µM, first compound 0.00999 µM)?
**A.** 99.3%

**Q.** And the viability, T/C [7]?
**A.** 103%

**Q.** What about the viability, T/C (second compound 0.1 µM, first compound 0.0999 µM) of the same compound?
**A.** 101%

**Q.** What about the viability, T/C [9] of the same compound?
**A.** 61.5%

**Q.** And the viability, T/C (second compound 0.316 µM, first compound 0.000999 µM)?
**A.** 104%

**Q.** And the viability, T/C (second compound 0.316 µM, first compound 0.00316 µM)?
**A.** 103%

**Q.** And the viability, T/C (second compound 0.316 µM, first compound 0.00999 µM)?
**A.** 103%

**Q.** And the viability, T/C [13]?
**A.** 99.8%

**Q.** And the viability, T/C (second compound 0.316 µM, first compound 0.0999 µM)?
**A.** 117%

**Q.** What about the viability, T/C [15] of the same compound?
**A.** 60.5%

**Q.** What about the viability, T/C (second compound 1 µM, first compound 0.000999 µM) of the same compound?
**A.** 97.1%

**Q.** And the viability, T/C (second compound 1 µM, first compound 0.00316 µM)?
**A.** 91.7%

**Q.** What about the viability, T/C (second compound 1 µM, first compound 0.00999 µM) of the same compound?
**A.** 95.7%

**Q.** And the viability, T/C [19]?
**A.** 97.9%

**Q.** And the viability, T/C (second compound 1 µM, first compound 0.0999 µM)?
**A.** 105%

**Q.** And the viability, T/C [21]?
**A.** 59.5%

**Q.** What about the viability, T/C (second compound 3.16 µM, first compound 0.000999 µM) of the same compound?
**A.** 80.6%

**Q.** What about the viability, T/C (second compound 3.16 µM, first compound 0.00316 µM) of the same compound?
**A.** 79.8%

**Q.** And the viability, T/C (second compound 3.16 µM, first compound 0.00999 µM)?
**A.** 93.5%

**Q.** What about the viability, T/C [25] of the same compound?
**A.** 80.6%

**Q.** And the viability, T/C (second compound 3.16 µM, first compound 0.0999 µM)?
**A.** 91.7%

**Q.** What about the viability, T/C [27] of the same compound?
**A.** 55.1%

**Q.** And the viability, T/C (second compound 10 µM, first compound 0.000999 µM)?
**A.** 64%

**Q.** What about the viability, T/C (second compound 10 µM, first compound 0.00316 µM) of the same compound?
**A.** 73.2%

**Q.** And the viability, T/C (second compound 10 µM, first compound 0.00999 µM)?
**A.** 70%

**Q.** What about the viability, T/C [31] of the same compound?
**A.** 76.4%

**Q.** And the viability, T/C (second compound 10 µM, first compound 0.0999 µM)?
**A.** 72.2%

**Q.** And the viability, T/C [33]?
**A.** 41.7%

**Q.** Which results are given for `Nc1ccn(C2OC(CO)C(O)C2(F)F)c(=O)n1` (stereo unspecified) + CN(C)c1ccc(Nc2c3ccc(NC(=O)CCN4CCCC4)cc3nc3cc(NC(=O)CCN4CCCC4)ccc23)cc1?
**A.** IC50 (second compound 0.0316 µM): 366 nM; IC50 (second compound 0.1 µM): 383 nM; IC50 (second compound 0.316 µM): 357 nM; IC50 (second compound 1 µM): 379 nM; IC50 (second compound 3.16 µM): 497 nM; IC50 (second compound 10 µM): 639 nM; viability, T/C [1]: 99.8%; viability, T/C [2]: 78.5%; viability, T/C [3]: 56.7%; viability, T/C [4]: 26.6%; viability, T/C [5]: 15.5%; viability, T/C [6]: 16.1%; viability, T/C [7]: 98.8%; viability, T/C [8]: 81.3%; viability, T/C [9]: 58.3%; viability, T/C [10]: 22.9%; viability, T/C [11]: 15%; viability, T/C [12]: 15.7%; viability, T/C [13]: 98.5%; viability, T/C [14]: 81.3%; viability, T/C [15]: 57%; viability, T/C [16]: 18.1%; viability, T/C [17]: 14.6%; viability, T/C [18]: 15.6%; viability, T/C [19]: 97%; viability, T/C [20]: 77.3%; viability, T/C [21]: 60%; viability, T/C [22]: 19.4%; viability, T/C [23]: 16.6%; viability, T/C [24]: 14.5%; viability, T/C [25]: 83.2%; viability, T/C [26]: 75.9%; viability, T/C [27]: 65.2%; viability, T/C [28]: 27%; viability, T/C [29]: 18.3%; viability, T/C [30]: 16.5%; viability, T/C [31]: 73.8%; viability, T/C [32]: 73.4%; viability, T/C [33]: 60.7%; viability, T/C [34]: 43.8%; viability, T/C [35]: 24.3%; viability, T/C [36]: 21.8%
